Test [1] has as its system phospho-SMAD 1/5/8 in human fetal neurospheres expressing mutant APP. The test is described as follows: phospho-SMAD 1/5/8 immunofluorescence staining in neurospheres treated with BMP receptor inhibitor. The test is classed as cell-based. Conditions: neurospheres treated for 1 week, different doses; FIGS. 5B and C. From the text: (§1) A human fetal neural stem cell line from University of California Irvine was developed from fetal neural tissue at 18 week gestational age enriched for CD133+ cells. The use of neural progenitor cells as non-hESC stem cells in this study is compliant to Stanford Stem Cell Research Oversight (SCRO) Protocol 194 pre-approved by the Internal Review Board (IRB)/SCRO of the Stanford Research Compliance Office (RCO). Informed consent was obtained, and standard material transfer agreement signed. Cells were grown in nonadherent ultra-low attachment well plates in X-VIVO 15 media (LONZA) supplemented with LIF (10 ng/ml), N2 Supplement, N-acetylcysteine (63 ug/ml), Heparin (2 ug/ml), EGF (20 ng/ml), and FGF (20 ng/ml).
(§2) cDNA for mutant APP harboring the Swedish and Indiana mutations was cloned into a pHIV-Zsgreen backbone obtained from Addgene. Lipofectamine 2000 was used to transduce the construct (either pHIV-Zsgreen+mutant APP or pHIV-Zsgreen alone) into H293T cells and media was collected after 48 hours. Virus was ultra-centrifuged and resuspended in PBS then titered before infecting human fetal neurospheres.
Neurospheres were cytospun onto slides and fixed in ice-cold methanol for 5 minutes. Slides were rinsed 3 times in phosphate-buffered saline (PBS) at room temperature, followed by blocking in 3% BSA in PBS for 1 hour at room temperature. […]

Test [2] relates to Zsgreen control neurospheres. Put plainly: Colony counts of Zsgreen-infected control human fetal neurospheres after 1 week of treatment. The conditions noted are these: 1 week treatment; FIG. 5E. The test is classed as cell-based.
Text: as §1, §2
Human neurospheres were dissociated into single cells and infected with either a lentiviral construct containing pHIV-Zsgreen+mutant APP or pHIV-Zsgreen alone and allowed to grow for a week. […] Colonies were counted after 7 days.

`c1ccc2c(-c3cnn4cc(-c5ccc(N6CCNCC6)cc5)cnc34)ccnc2c1` [LDN-193189]: the “pSMAD 1/5/8 level after treatment” value in test [1] is on record as “substantially decreased”. Besides, the “impact on Zsgreen control neurosphere growth” value in test [2] is “minimal impact”.
